# Biological target: T1, Histamine H3 receptor (Rattus norvegicus, UniProt Q9QYN8)
# Test: The compound was tested in vitro for antagonistic activity against H3-receptor in the rat cerebral cortex; Not active (tested up to 1000 nM); call rule not given here
# Type: functional, tissue-based
# T1 sequence (Q9QYN8 whole entry): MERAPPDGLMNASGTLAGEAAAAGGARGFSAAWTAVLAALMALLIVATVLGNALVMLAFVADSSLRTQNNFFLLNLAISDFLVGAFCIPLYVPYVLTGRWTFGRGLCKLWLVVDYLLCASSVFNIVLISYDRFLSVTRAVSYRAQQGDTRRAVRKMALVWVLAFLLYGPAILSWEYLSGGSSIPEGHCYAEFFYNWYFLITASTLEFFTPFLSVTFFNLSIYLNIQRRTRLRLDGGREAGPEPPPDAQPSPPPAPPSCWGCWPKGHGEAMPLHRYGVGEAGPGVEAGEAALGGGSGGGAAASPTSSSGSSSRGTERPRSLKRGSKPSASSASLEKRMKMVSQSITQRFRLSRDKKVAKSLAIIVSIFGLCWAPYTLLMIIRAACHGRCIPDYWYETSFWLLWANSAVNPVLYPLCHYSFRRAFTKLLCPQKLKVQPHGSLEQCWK
row,Ki,Compound
1,Not Active,S=C(NCCCn1ccnc1)NC1CCCCC1

# Biological target: T1, Histamine H3 receptor
# Test: In vitro antagonism of the histamine H3-receptor in the rat cerebral cortex.
# Type: functional, tissue-based
row,Ki,Compound
1,160 nM,Clc1cc(NCCc2cnc[nH]2)ccn1
2,42 nM,FC(F)(F)c1ccc(N2CCC(c3cnc[nH]3)CC2)nc1
3,> 10000 nM,c1ccc(CCNc2ncccn2)nc1
4,400 nM,c1c[nH]c(SCCc2cnc[nH]2)n1
5,~200 nM,S=C(NCCc1c[nH]cn1)NC1CCCCC1
6,170 nM,O=[N+]([O-])c1ccc(NCCCc2c[nH]cn2)nc1
7,92 nM,c1ccc(SCCc2cnc[nH]2)nc1
8,13 nM,S=C(NCCCc1cnc[nH]1)NC1CCCCC1
9,70 nM,CNC(=S)NCCCCc1cnc[nH]1 [BURIMAMIDE]
10,240 nM,O=[N+]([O-])c1cccnc1NCCc1c[nH]cn1
11,~500 nM,S=C(NCCSCc1c[nH]cn1)NC1CCCCC1
12,53 nM,O=[N+]([O-])c1cc[n+]([O-])c(NCCc2c[nH]cn2)c1
13,~1000 nM,O=[N+]([O-])c1ccc(NCCc2ccccn2)nc1
14,~600 nM,O=[N+]([O-])c1ccc(SCc2c[nH]cn2)nc1
15,17 nM,FC(F)(F)c1ccc(NCCc2cnc[nH]2)nc1
16,29 nM,O=[N+]([O-])c1ccc(NCCc2c[nH]cn2)nc1
17,200 nM,c1cnc(NCCc2c[nH]cn2)cn1
18,340 nM,c1csc(NCCc2cnc[nH]2)n1
19,200 nM,c1ccc(NCCc2c[nH]cn2)nc1

row,Compound,Ki
1,S=C(NC1CCCCC1)N1CCC(c2cnc[nH]2)CC1 [THIOPERAMIDE],4.3 nM
2,COC(=O)c1ccc(NCCc2cnc[nH]2)nc1,42 nM

# — ChEMBL document CHEMBL1128690, “Design of potent non-thiourea H3-receptor histamine antagonists” (J Med Chem, 1995)
